Test [1] has as its system Adult Bovine Aortic Endothelial (ABAE) cell line. The test can be described thus: Antiproliferative activity in Adult Bovine Aortic Endothelial (ABAE) cell line, PROTOCOL 2 (48 h, sulforhodamine B). Type of test: cell-based. Particulars: Bos taurus, ABAE cells. As for the experimental part:
The antiproliferative activity of the compounds of Formula I in an Adult Bovine Aortic Endothelial (ABAE) cell line and in Human Tumor cells lines is evaluated in three similar assays that measure growth inhibition. The assays are identified as follows: PROTOCOLS 1, 2, and 3 are described in greater detail hereinbelow. In general, according to PROTOCOLS 1 and 2, the target ABAE and/or Human Tumor cells are exposed to the compounds of Formula I for 48 hours. PROTOCOL 3 exposes ABAE cells to the compounds for 4 days. A detailed description of the Protocols is as follows: All cell lines are maintained in log phase in RPMI 1640 media, supplemented with 5% fetal calf serum, penicillin/streptomycin and 2 mM L-glutamine. Cultures are renewed after 20 passages with cells from a fresh stock of batch-frozen early passage cells. Cell lines are routinely checked for mycoplasma contamination (Genprobe). In a laminar flow hood, cells (1-5×10^4) are plated into 96-well microtiter plates in a volume of 0.1 ml/well with a bulk microtiter dispenser (Denley). […] At this concentration, dimethylsulfoxide has no effect on cell growth. Compounds are added using a Tomtec dispenser which simultaneously dispenses from one 96-well plate, containing the drug dilutions, to the plates containing the cells. […] The number of cells on the plate are quantitated using a protein dye-binding assay (Monks et al., 1991). […] The optical densities are read from an automatic spectrophotometric plate reader (Dynatech) directly to a main frame computer (VAX 8600). PROTOCOL 2 Antiproliferative Activity in Human Tumor and Adult Bovine Aortic Endothelial Cell Lines (ABAE) The antiproliferative activity of the compounds of Formula I is evaluated in a panel comprised of human tumor cell lines as listed in Protocol 1 as well as an adult bovine aortic endothelial cell line (ABAE). […] Table 1 presents the results depicting the antiproliferative activity of the compounds of Formula I against an ABAE cell line, as evaluated by PROTOCOL 2 and PROTOCOL 3. […]

Another test has as its system SW620. The test can be described thus: Antiproliferative activity in human tumor cell lines, PROTOCOL 1 and PROTOCOL 2. Type of test: cell-based. Particulars: SW-620, colon tumor cell line SW620, 48 hours, read-out: IC50. As for the experimental part:
The antiproliferative activity of the compounds of Formula I in an Adult Bovine Aortic Endothelial (ABAE) cell line and in Human Tumor cells lines is evaluated in three similar assays that measure growth inhibition. The assays are identified as follows:
PROTOCOLS 1, 2, and 3 are described in greater detail hereinbelow. In general, according to PROTOCOLS 1 and 2, the target ABAE and/or Human Tumor cells are exposed to the compounds of Formula I for 48 hours. PROTOCOL 3 exposes ABAE cells to the compounds for 4 days. A detailed description of the Protocols is as follows:
Antiproliferative Activity in Human Tumor Cell Lines
The antiproliferative activity of the compounds of Formula I of the present invention is evaluated in a panel comprised of human tumor cell lines. The human tumor cell lines are from
2) Colon tumors: MIP, CACO2, and SW620.
All cell lines are maintained in log phase in RPMI 1640 media, supplemented with 5% fetal calf serum, penicillin/streptomycin and 2 mM L-glutamine. Cultures are renewed after 20 passages with cells from a fresh stock of batch-frozen early passage cells. Cell lines are routinely checked for mycoplasma contamination (Genprobe). In a laminar flow hood, cells (1-5×10^4) are plated into 96-well microtiter plates in a volume of 0.1 ml/well with a bulk microtiter dispenser (Denley). […] At this concentration, dimethylsulfoxide has no effect on cell growth. Compounds are added using a Tomtec dispenser which simultaneously dispenses from one 96-well plate, containing the drug dilutions, to the plates containing the cells. After two days of continuous drug exposure, 50% cold trichloroacetic acid (TCA) is added to 10% final concentration to fix the cells, and after 60 minutes at 4° C., the TCA is aspirated and the plates are washed 5 times with deionized water using a microtiter plate washer. The number of cells on the plate are quantitated using a protein dye-binding assay (Monks et al., 1991). A 0.4% solution of the dye, sulforhodamine B, in […] is added to the plates, and the plates are washed 5 times with 1% glacial acetic acid using the automatic plate washed. The bound stain is solubilized with 0.1 ml of 10 mMTris base. The optical densities are read from an automatic spectrophotometric plate reader (Dynatech) directly to a main frame computer (VAX 8600).
Positive controls, that include standard chemotherapeutic drugs (i.e., adriamycin, cisplatin, etc.), are included in every experiment.
Background optical density measurements (complete media--cells, and complete media+drug-cells) are automatically subtracted from the appropriate control and test wells. Mean values and standard errors are determined from duplicate wells. A measure is also made of the optical density at time when the drugs are added. The number of cells after treatment (P), as % of control, is calculated for every concentration of drug, as follows: [formula] wherein: T is optical density measurement for treated cells after 48 hours;
C is optical density measurement for untreated cells after 48 hours;
Co is optical density measurement for cells at the time of drug addition.
IC50 of Growth inhibition is calculated from the sets of P values using the RS-1 data package (BBN Software).
Antiproliferative Activity in Human Tumor and Adult Bovine Aortic Endothelial Cell Lines (ABAE)
The antiproliferative activity of the compounds of Formula I is evaluated in a panel comprised of human tumor cell lines as listed in Protocol 1 as well as an adult bovine aortic endothelial cell line (ABAE). This assay is a modification of PROTOCOL 1. The modifications include:
1) each concentration for each compound is tested in a single well;
2) compounds are tested at 20, 4, 0.8, 0.16 microgram/ml and additionally in some experiments at 100 and 0.32 microgram/ml;
3) samples are pipetted into a 96-well plate for each of the cell lines by a Beckman Biomek 1000 SL robot; […]

SMILES strings stand for the structures. ≈ marks a conversion by molar mass, not a printed value. Where a name gives a salt, the structure may show the parent alone.

In the case of `CN(C)[C@@H]1C(O)=C(C(N)=O)C(=O)[C@@]2(O)C(O)=C3C(=O)c4c(O)ccc(Br)c4CC3CC12` (stereo partly drawn) [Example 8, [4S-(4α,12aα)]-7-Bromo-4-(dimethylamino)-1,4,4a,5,5a,-6,11,12a-octahydro-3,10,12,12a-tetrahydroxy-1,11-dioxo-2-naphthacenecarboxamide sulfate], the IC50 in test [1] is 2.4 µg/mL; with SW620, 1.4 µg/mL.
Turning to `CN(C)[C@@H]1C(O)=C(C(N)=O)C(=O)[C@@]2(O)C(O)=C3C(=O)c4c(O)ccc(I)c4CC3CC12` (stereo partly drawn) [Example 10, [4S-(4α,12aα)]-4-(Dimethylamino)-4,4,4a,5,5a,6,11,12a-octahydro-3,10,12,12a-tetrahydroxy-7-iodo-1,11-dioxo-2-naphthacenecarboxamide], the IC50 amounted to 5 µg/mL (≈ 9.25 µM) in test [1] and 1.2 µg/mL (≈ 2.22 µM) in the test on SW620.
Regarding `CN(C)c1ccc(O)c2c1C[C@H]1C[C@H]3[C@H](N(C)C)C(O)=C(C(N)=O)C(=O)[C@@]3(O)C(O)=C1C2=O` [Minocycline, reference compound], the IC50 in test [1] is over 20 µg/mL.

The record behind these values is patent US5574026A, “Methods for inhibiting angiogenesis proliferation of endothelial or tumor cells and tumor growth” (American Cyanamid Company, priority 1994, dated 1996).
